Data as given in ChEMBL document CHEMBL4359843, “Linear and Rationally Designed Stapled Peptides Abrogate TLR4 Pathway and Relieve Inflammatory Symptoms in Rheumatoid Arthritis Rat Model” (J Med Chem, 2019).
Active and inactive are the calls of the source. The calls are words filed in the database; no cut-off is given here.

Assays:
RAW264.7 [1] = assay: Cytotoxicity against mouse RAW264.7 cells assessed as reduction in cell viability at 20 to 80 uM after 24 hrs by MTT assay; format: cell-based; conditions: raw264.7, 24 h
RAW264.7 [2] = assay: Cytotoxicity against mouse RAW264.7 cells assessed as reduction in cell viability at 100 uM after 24 hrs by MTT assay; format: cell-based; conditions: raw264.7, 24 h
Toll-like receptor 4 = Toll-like receptor 4 (Homo sapiens, UniProt O00206); assay: Binding affinity to recombinant human TLR4 using phage displayed compound by Phage-ELISA
Chain of Toll-like receptor 4 (O00206 whole entry): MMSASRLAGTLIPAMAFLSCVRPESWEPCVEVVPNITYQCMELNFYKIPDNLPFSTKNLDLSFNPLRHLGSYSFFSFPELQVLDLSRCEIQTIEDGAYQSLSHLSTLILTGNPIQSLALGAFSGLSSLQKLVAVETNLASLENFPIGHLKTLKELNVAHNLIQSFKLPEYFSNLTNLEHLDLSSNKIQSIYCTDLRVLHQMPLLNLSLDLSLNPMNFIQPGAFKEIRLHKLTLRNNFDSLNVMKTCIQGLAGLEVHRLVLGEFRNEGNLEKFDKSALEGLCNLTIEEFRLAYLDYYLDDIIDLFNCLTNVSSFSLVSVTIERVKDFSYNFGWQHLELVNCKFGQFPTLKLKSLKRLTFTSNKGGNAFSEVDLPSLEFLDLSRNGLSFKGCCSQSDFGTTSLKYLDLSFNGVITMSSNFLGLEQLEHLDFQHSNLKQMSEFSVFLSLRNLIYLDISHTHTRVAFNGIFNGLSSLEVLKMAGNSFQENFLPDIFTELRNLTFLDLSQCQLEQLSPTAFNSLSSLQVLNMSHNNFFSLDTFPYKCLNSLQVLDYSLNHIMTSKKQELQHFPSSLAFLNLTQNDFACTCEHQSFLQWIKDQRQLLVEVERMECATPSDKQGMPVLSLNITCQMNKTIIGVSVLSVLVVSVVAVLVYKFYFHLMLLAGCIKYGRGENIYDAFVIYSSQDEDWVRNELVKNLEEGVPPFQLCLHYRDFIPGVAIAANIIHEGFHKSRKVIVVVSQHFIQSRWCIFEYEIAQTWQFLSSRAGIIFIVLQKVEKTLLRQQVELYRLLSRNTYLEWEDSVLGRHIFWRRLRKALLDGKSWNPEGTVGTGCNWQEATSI

Activity (Toll-like receptor 4) | Substance | Activity (RAW264.7 [1]) | Activity (RAW264.7 [2])
Active | H-FGRYFPCLNWLG-OH | Non-Toxic | Toxic
Active | H-FWIFSRYPGASA-OH | Non-Toxic | Toxic
Active | H-HWWHFHSLRWLG-OH | Non-Toxic | Toxic
Active | H-LWWCFHSLRWLG-OH | Non-Toxic | Toxic
